Structures can show the parent of a compound that is named as a salt.
Legend:
IL-8 = experiment: U937 cell-based anti-inflammatory assay for influenza virus infection, IL-8 production (AlphaLISA); parameters: species or system human; conditions: Homo sapiens, U-937, 72 h, read-out: IC50 IL-8
Method: U937 cells were seeded in a 96-well culture plate at a density of 1.5 × 10^5 cells per well and incubated for 24 hours prior to virus infection. Subsequently, the cells in each well were infected with the PR8 virus at a multiplicity of infection of 0.05 and treated with serially diluted drugs or left untreated as a control. The drugs were serially diluted threefold, starting from an initial concentration of 200 µM down to 0.01 µM. […] Following this incubation, the supernatants were collected and subjected to AlphaLISA analysis to determine IL-8, IP-10, and MCP1 protein levels.
The AlphaLISA detection kits employed in this study were IL-8 (PerkinElmer AL224), IP-10 (PerkinElmer AL259), and MCP1 (PerkinElmer, AL244). U937 cell culture supernatants were measured for IL-8, IP-10, and MCP-1 protein levels using AlphaLISA assay as per the manufacturer’s recommendations. The ELISA and AlphaLISA plates were read using the Varioskan LUX multimode microplate reader (Thermo Scientiﬁc, Waltham, MA, USA).

U937 cells = experiment: Cytotoxicity assay (CellTiter-Glo); type: cell-based, human; conditions: U937 cells; CellTiter-Glo; mean of three independent experiments
Method: The compound cytotoxicity was determined by CellTiter-Glo Assay (Promega, Madison, WI, USA). After adding 15 µL of CellTiter-Glo reagent to each well, plates were incubated at room temperature for 15 minutes with shaking. The luminescence intensity was determined by a multimode plate reader (Wallac Envision, PerkinElmer, MA, USA).

PR8 virus = experiment: Viral titers in BALF by TCID50 assay using MDCK cells; type: in vivo; conditions: 300 TCID50; 20 mg/kg/d; day 7 p.i.; treated versus untreated mice
Method: Madin-Darby canine kidney (MDCK) cells (ATCC CCL-34™) were maintained in Dulbecco’s modified Eagle’s medium (DMEM, Gibco, Carlsbad, CA) supplemented with 10% fetal bovine serum (Gibco), 100 U/mL penicillin, and 100 µg/mL streptomycin. Human monocyte cell line U937 (CRL-1593.2) was cultured in RPMI 1640 medium supplemented with 10% fetal bovine serum (Gibco), 100 U/mL penicillin, and 100 µg/mL streptomycin. All these cells were maintained at 37℃ in a 5% CO2 incubator. […] The viral titers were measured using 50% tissue culture infective dose (TCID50) assay in MDCK cells. The 10-day-old embryonated chicken eggs were obtained from Guangdong Wens Dahuanong Biotechnology Co., Ltd (Guangdong, China). Six-week-old BALB/c mice were purchased from Guangdong Medical Laboratory Animal Center (GDMLAC, Guangdong, China) and housed under specific pathogen-free conditions.

Compound: CNS(=O)(=O)C[C@H]1CC[C@H](N(C)c2ncnc3[nH]ccc23)CC1 [Oclacitinib maleate]
- IC50 (IL-8): 0.05 µM
- CC50 (U937 cells): 50 µM
- viral titers in the BALF (PR8 virus): no significant differences

Reference: PMC10989010, “A panel of janus kinase inhibitors identified with anti-inflammatory effects protect mice from lethal influenza virus infection” (Antimicrobial Agents and Chemotherapy, 2024)
